Results on 1 compound are retold here after patent publication US20050100902A1, “5-cyano-1h-indole derivatives as antagonist of the inerleukine-8 receptors” (priority 2001, published 2005).

Each structure is given as a SMILES string.

The compound `N#Cc1ccc2[nH]c(-c3ccc(Cl)c(Cl)c3)c(CCCC(=O)O)c2c1` [Example 1, 2-(3,4-dichlorophenyl)-5-cyano-1H-indole-3-butanoic Acid] had a melting point of 158 to 160 °C.

One may read the melting point as the temperature, or range, at which the solid turns liquid.
